Test results reported in ChEMBL document CHEMBL1201862, “PubChem BioAssay data set” (2004).
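Values below derive from 48-hour exposures of cells grown in 96-well plates, with endpoints linearly interpolated between the two concentrations bracketing the appropriate inhibition level. Here, GI50 denotes the concentration required for 50% inhibition of growth.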 The source made the active and inactive calls. Cut-off read from the data, not from the text of the source: active = GI50 up to about 1.1 µM and inactive = higher.

Tests used:
Test in all cases: NCI anticancer screen, dose series, 48 h
TK-10 = system: TK-10
HOP-92 = system: HOP-92
U-251 = system: U-251
HCT-116 = system: HCT-116
A498 = system: A498
OVCAR-8 = system: OVCAR-8
DMS-273 = system: DMS-273
ACHN = system: ACHN
COLO 205 = system: COLO 205
SW-620 = system: SW-620
SF-539 = system: SF-539
OVCAR-4 = system: OVCAR-4
SK-OV-3 = system: SK-OV-3
786-0 = system: 786-0
OVCAR-3 = system: OVCAR-3
MCF7 = system: MCF7
BT-549 = system: BT-549
NCI/ADR-RES = system: NCI/ADR-RES
PC-3 = system: PC-3
MDA-N = system: MDA-N

Row | SMILES | GI50 (TK-10) | GI50 (HOP-92) | GI50 (U-251) | GI50 (HCT-116) | GI50 (A498) | GI50 (OVCAR-8) | GI50 (DMS-273) | GI50 (ACHN) | GI50 (COLO 205) | GI50 (SW-620) | GI50 (SF-539) | GI50 (OVCAR-4) | GI50 (SK-OV-3) | GI50 (786-0) | GI50 (OVCAR-3) | GI50 (MCF7) | GI50 (BT-549) | GI50 (NCI/ADR-RES) | GI50 (PC-3) | GI50 (MDA-N)
1 | C1=c2ccccc2=C2C(=C(c3ccccc3)C(c3ccccc3)=NN2c2ccccc2)S1 | > 100 µM (inactive) | > 100 µM (inactive) | 46.7 µM (inactive) | > 100 µM (inactive) | > 100 µM (inactive) | > 100 µM (inactive) | > 100 µM (inactive) | > 100 µM (inactive) | > 100 µM (inactive) | 91.4 µM (inactive) | > 100 µM (inactive) | > 100 µM (inactive) | > 100 µM (inactive) | 58.6 µM (inactive) |  |  |  |  |  | 
2 | O=C1NC2OCC(O)C(O)C2O1 (stereo not drawn) | > 100 µM (inactive) | > 100 µM (inactive) | > 100 µM (inactive) | > 100 µM (inactive) | > 100 µM (inactive) | > 100 µM (inactive) | > 100 µM (inactive) | > 100 µM (inactive) | > 100 µM (inactive) | > 100 µM (inactive) | > 100 µM (inactive) | > 100 µM (inactive) | > 100 µM (inactive) | > 100 µM (inactive) | > 100 µM (inactive) |  |  |  |  | 
3 | CCCCc1c2c(nc3c1CCC/C3=C\c1ccccc1)C(=O)C(CN(C)C)CC2 (stereo not drawn) | 15.7 µM (inactive) | 16.6 µM (inactive) | 16.6 µM (inactive) | 16 µM (inactive) | 18.7 µM (inactive) | 20.8 µM (inactive) | 20.2 µM (inactive) | 15.9 µM (inactive) | 19.1 µM (inactive) | 10.4 µM (inactive) | 20.7 µM (inactive) | 14.3 µM (inactive) | 18.5 µM (inactive) | 10 µM (inactive) | 19.5 µM (inactive) | 3.37 µM (inactive) | 4.32 µM (inactive) | 29.3 µM (inactive) | 14.1 µM (inactive) | 7.28 µM (inactive)
4 | CN(C)c1nc(Oc2nc(N(C)C)nc(N(C)C)n2)nc(N(C)C)n1 | > 100 µM (inactive) | > 100 µM (inactive) | 75.2 µM (inactive) | > 100 µM (inactive) | > 100 µM (inactive) | 93.8 µM (inactive) | 61 µM (inactive) | > 100 µM (inactive) | 22.1 µM (inactive) | > 100 µM (inactive) | > 100 µM (inactive) | > 100 µM (inactive) | > 100 µM (inactive) | > 100 µM (inactive) | 46 µM (inactive) |  |  |  |  | 
5 | O=C(CCCCCCCCC(=O)OCCCn1cc(C(=O)NC(=O)OCc2ccccc2)c(=O)[nH]c1=O)OCCCn1cc(C(=O)NC(=O)OCc2ccccc2)c(=O)[nH]c1=O | > 100 µM (inactive) | > 100 µM (inactive) | > 100 µM (inactive) | > 100 µM (inactive) | > 100 µM (inactive) | > 100 µM (inactive) | > 100 µM (inactive) | > 100 µM (inactive) | > 100 µM (inactive) | > 100 µM (inactive) | > 100 µM (inactive) | > 100 µM (inactive) | > 100 µM (inactive) | > 100 µM (inactive) | > 100 µM (inactive) |  |  |  |  | 
6 | NCc1cc(O)c(O)c(O)c1 | > 100 µM (inactive) | > 100 µM (inactive) | > 100 µM (inactive) | 63.5 µM (inactive) | > 100 µM (inactive) | > 100 µM (inactive) | > 100 µM (inactive) | > 100 µM (inactive) | > 100 µM (inactive) | > 100 µM (inactive) |  | > 100 µM (inactive) | > 100 µM (inactive) | > 100 µM (inactive) | > 100 µM (inactive) |  |  |  |  | 
7 | Cc1ccc(NC(=O)C(=O)CC(=O)c2c(C)[n+]([O-])c3ccccc3[n+]2[O-])cc1 | 91 µM (inactive) | 21.9 µM (inactive) | 31 µM (inactive) | 18.6 µM (inactive) | > 100 µM (inactive) | 22.8 µM (inactive) | 25.9 µM (inactive) | 26.2 µM (inactive) | 23.9 µM (inactive) | 33.7 µM (inactive) | 29.2 µM (inactive) | 22.6 µM (inactive) | 73.1 µM (inactive) | 40.6 µM (inactive) | 12 µM (inactive) |  |  |  |  | 
8 | CCSc1nc(N2CCCC2)s[s+]1.[O-][Cl+3]([O-])([O-])[O-] | 90.8 µM (inactive) | 64.7 µM (inactive) | 56.4 µM (inactive) | 28.4 µM (inactive) | 6.75 µM (inactive) | 39.3 µM (inactive) | 49.5 µM (inactive) | 54.3 µM (inactive) | 2.23 µM (inactive) | 34.4 µM (inactive) | 43 µM (inactive) | 50.8 µM (inactive) | 84.1 µM (inactive) | 58.1 µM (inactive) | 3.58 µM (inactive) | 0.167 µM (active) | 33 µM (inactive) | > 100 µM (inactive) | 31.7 µM (inactive) | 16.3 µM (inactive)
9 | CS(=O)(=O)Sc1ccc(Cl)cc1 | 14 µM (inactive) | 7.11 µM (inactive) | 2.84 µM (inactive) | 5.7 µM (inactive) | 2.38 µM (inactive) | 7.87 µM (inactive) | 5.15 µM (inactive) |  | 3.52 µM (inactive) | 12.7 µM (inactive) | 2.55 µM (inactive) | 13.7 µM (inactive) | 23.5 µM (inactive) | 6.32 µM (inactive) | 5.87 µM (inactive) |  |  |  |  | 
10 | O=C(/C=C/c1ccccc1)NC1C=Nc2ccc(Cl)cc2NC1=O (stereo not drawn) | 36 µM (inactive) | 32.2 µM (inactive) | 18.6 µM (inactive) | 22.8 µM (inactive) | 21.7 µM (inactive) | 29.5 µM (inactive) | 18.2 µM (inactive) | 24.1 µM (inactive) | 17.1 µM (inactive) | 7.13 µM (inactive) | 27.2 µM (inactive) | 20.5 µM (inactive) | 25.1 µM (inactive) | 23.2 µM (inactive) | 19.5 µM (inactive) |  |  |  |  | 
11 | O=C(O)CC(NC(=O)CP(=O)(O)O)C(=O)O (stereo not drawn) | 1420 µM (inactive) | 424 µM (inactive) | 71.9 µM (inactive) | 21.5 µM (inactive) | 2470 µM (inactive) | 149 µM (inactive) | 119 µM (inactive) | 711 µM (inactive) | 558 µM (inactive) | 285 µM (inactive) |  | 2180 µM (inactive) | 5730 µM (inactive) | 40 µM (inactive) | 910 µM (inactive) | 381 µM (inactive) | 3210 µM (inactive) | 1020 µM (inactive) | 1640 µM (inactive) | 221 µM (inactive)
12 | Nc1nc(Cl)c2ncn(CCCC(c3ccccc3)P(=O)(O)O)c2n1 (stereo not drawn) | > 100 µM (inactive) | > 100 µM (inactive) | > 100 µM (inactive) | > 100 µM (inactive) | > 100 µM (inactive) | > 100 µM (inactive) | > 100 µM (inactive) | > 100 µM (inactive) | > 100 µM (inactive) | > 100 µM (inactive) | > 100 µM (inactive) |  | > 100 µM (inactive) | > 100 µM (inactive) | > 100 µM (inactive) |  |  |  |  | 
13 | CCCCCC#COC1CC(C)CC[C@@H]1C(C)C (stereo partly drawn) | > 100 µM (inactive) | > 100 µM (inactive) | 42.3 µM (inactive) | 57.7 µM (inactive) |  | > 100 µM (inactive) | 65 µM (inactive) | 78.2 µM (inactive) | > 100 µM (inactive) | 18.5 µM (inactive) | > 100 µM (inactive) | > 100 µM (inactive) | > 100 µM (inactive) | > 100 µM (inactive) | > 100 µM (inactive) |  |  |  |  | 
14 | O=C1C(Cl)=C(Cl)C(=O)N1c1ccc(F)cc1 [FLUOROIMIDE] | 18.7 µM (inactive) | 17.6 µM (inactive) | 33.1 µM (inactive) | 26 µM (inactive) | > 100 µM (inactive) | 21.1 µM (inactive) | 25.8 µM (inactive) | 18.2 µM (inactive) | 14.4 µM (inactive) | 16.9 µM (inactive) | 23.5 µM (inactive) | 16.3 µM (inactive) | 28.6 µM (inactive) | 16.4 µM (inactive) | 17.5 µM (inactive) | 20.7 µM (inactive) | 16.5 µM (inactive) |  | 16.3 µM (inactive) | 19.5 µM (inactive)
